The results in this text go back to patent publication US8148392B2, “2-indolyl imidazo [4,5-d] phenanthroline derivatives and their use in the treatment of cancer” (Lorus Therapeutics Inc., priority 2005, dated 2012).

Each structure is given as a SMILES string. Read-outs that look alike come from different tables or passages of the source.

In test [1] the test system is panel of 60 human cancer cell lines. Put plainly: NCI DTP in vitro anticancer screen, panel of 60 human cancer cell lines. The test is classed as cell-based. As to the method: For example, the following methodology, which is currently employed by the NCI, can be used to assess the GI50 of a candidate compound of Formula I in the selected cancer cell lines. Briefly, cell suspensions are diluted (5000-40,000 cells per well) and 100 μL of the diluted cell suspension is added into 96-well microtiter plates. Inoculates are allowed a preincubation period of 24 h at 37° C. for stabilization. Dilutions at twice the intended test concentration of the candidate compound are added at time zero in 100 μL aliquots to the microtiter plate wells. Test compounds are generally evaluated at five 10-fold dilutions. In routine testing, the highest well concentration is usually 10E-4 M, but this may be adjusted depending on the compound being tested. The cells are incubated with the test compound for 48 h in 5% CO2 atmosphere and 100% humidity. The cells are then assayed by using the sulforhodamine B assay (see, for example, Skehan, P., et al. (1990) JNCI, J. Natl. Cancer Inst. 82, 1107-1112; and Chen, S. F., et al. (1990) Proc. Am. Assoc. Cancer Res. 31, A2644) employing a plate reader which can be used to read the optical densities.
Compounds 2 and 3 were evaluated for their antiproliferative effects in a panel of 60 human cancer cell lines as part of the in vitro anticancer screening services provided by the DTP (Developmental Therapeutics Program) of the US National Cancer Institute (NCI).
Analysis of the effects of compounds of Formula I on in vitro and in vivo cell growth inhibition were performed utilizing the methods as described in the preceding Examples. As shown in Example 12, cell growth inhibition by the parental compound 3 was screened by National Cancer Institute 60-cell line assay and leukemia, non-small cell cancer, colon cancer, renal cancer and prostate cancer panels were especially sensitive to compound 3.

Another test relates to KLF4. Put plainly: KLF4 DNA binding activity, EMSA, HT-29 nuclear extracts. It counts as cell-based, human. Here is the method: Based on overlapping transcription factor binding sites on KLF4 gene promoter region (as shown in FIG. 32A), MTF-1 binding may favor increased binding of other KLF4 inducers; Sp1 and KLF4.
Electrophoretic mobility shift assay (EMSA) was performed as follows. Nuclear extracts from HT-29 cells (10^7 cells in 100 mm culture dish in each experimental group) were prepared using nuclear extraction kit (Panomics, Redwood City, Calif.). EMSA assays were performed using KLF4 and Sp1 EMSA “Gel-Shift” kits (Panomics), by following the manufacturer's instruction. Briefly, 5 μg of nuclear extract was used for each binding reaction. After 30 min of binding reaction, the samples were separated on 6% polyacrylamide gel at 4° C. at 120 V, and transferred to BrightStar™-Plus positively charged nylon membrane. The biotin-labeled probes on the membrane were visualized by using ECL detection system (Panomics).

The next test has as its system MTF-1. As to the kind of experiment: MTF-1 DNA-binding activity, EMSA, HT-29 nuclear extract. The test is classed as cell-based, human. As to the method:
To verify the change in MTF-1 activity at earlier time of incubation, prior to the significant decrease in MTF-1 gene expression, MTF-1 nuclear translocation and DNA-binding activity was determined in nuclear extract of HT-29 cells treated with compound 3 for 4 hr, by electrophoretic mobility shift assay (EMSA) (FIG. 40B) as follows. HT-29 cells were treated with DMSO, 35 μM ZnCl2 (positive control) and 1 μM compound 3 for 4 hr. Nuclear protein was extracted and incubated with biotin-labeled MTF-1 binding oligonucleotide probes. The retarded mobility of labeled probe upon MTF-1 binding was observed as a band shift (FIG. 40B). […] In zinc-treated groups, 2 additional shift bands (open arrows) were observed (lane 3), indicating the increase in zinc-dependent MTF-1 activity. […] Excess unlabeled probes were added in lane 2, 4 and 6 to compete the labeled probes binding with MTF-1 in the nuclear extract, showing the specificity of MTF-1-binding shift bands in lane 1, 3 and 5, respectively.
HT-29 cells were treated with 35 μM ZnCl2 for 4 hr and the nuclear extract from zinc-treated cells (zinc-activated MTF-1) was treated with compound 3 in vitro and DNA-binding activity of MTF-1 to MRE sequence was assessed by electrophoretic mobility shift assay (EMSA) (Panomics, Redwood City, Calif.).
To examine inactivation of MTF-1 by compound 3 in the cells, HT-29 cells were treated with compound 3 for 1 to 4 hr and DNA-binding activity of MTF-1 in the nuclear extract was assessed by EMSA.

The subject of test [2] is human colon adenocarcinoma cells HT-29. Put plainly: Colon carcinoma HT-29 xenograft model, tumour growth. It counts as in vivo, CD-1 female nude mice. Here is the method: The ability of compound 3 to inhibit colon tumour growth in vivo was tested as follows. CD-1 female nude mice (7 mice per treatment group, 6-7 weeks) were injected intraperitoneally with human colon adenocarcinoma cells HT-29 cells (3×10^6 cells in 0.1 ml PBS). Treatment of the mice with vehicle or 50 mg/kg/d of compound 3 was initiated 5 days post-inoculation (size of tumours=20-40 mm^3) for 7-day cycles of five days followed by a 2 day break for 5 weeks. The size of the tumours was measured over the course of the experiment using calipers, and the weight of the tumours was measured after the animals were sacrificed.
The ability of compounds 3, 5, and 7 to inhibit colon carcinoma cell growth in vivo was tested in the mouse xenograft model as described in Example 26. […]
The tumor regression efficacy of compound 3 was assessed in compound 3-treated HT-29-transplanted athymic mice (FIG. 54A), and correlated with gene expressions of MTF-1, KLF4 and Cyclin D1 in HT-29 xenograft tissues (FIG. 54B). […] The tumor size was measured during the course of treatment using calipers (FIG. 54A). […] The tumor tissues were excised, frozen immediately and stored at −80° C. until RNA extraction and gene expression was analyzed by RT-PCR (FIG. 54B). […]

Regarding `Cc1[nH]c2ccccc2c1-c1nc2c3cccnc3c3ncccc3c2[nH]1` [Compound 3], the GI50 in test [1] (Homo sapiens, NCI 60-cell line assay, read-out: average GI50 of all cell lines tested) is 0.62 µM; in test [1] (Homo sapiens, span of average values in the NCI panel (FIG. 2), read-out: GI50 average values) it was 0.61 to 12.3 µM; in test [1] (average over human tumour cell lines of the NCI panel (FIG. 1), read-out: average GI50 (growth inhibition by 50%)), < 2 µM. For the same compound, the “selectivity among cancer types of the NCI panel” value in test [1] (in words) was “selective inhibitor of colon, leukemia, non-small cell lung cancer, and prostate cell lines”. The “DNA binding activity of KLF4” value with KLF4 is listed as “Increased DNA binding activities”. For the same compound, the “DNA-binding activity of MTF-1” value with MTF-1 (HT-29 cells treated for 1 to 4 hr) is “Significant decrease in MTF-1 activity”. Besides, the “zinc-dependent MTF-1 DNA-binding activity” value in the test on MTF-1 (HT-29 treated with 1 μM for 4 hr, versus ZnCl2 positive control) is listed as “zinc-dependent MTF-1 activity was not increased”. Further, the “DNA-binding activity of zinc-activated MTF-1” value with MTF-1 (nuclear extract of zinc-treated HT-29 cells treated in vitro) is “Inactivation of MTF-1 DNA-binding”. Besides, the “tumour growth (size and weight)” value in test [2] (50 mg/kg/d, five days on 2 off, 5 weeks) was “able to inhibit tumour growth”. In addition, the tumor size result in test [2] (100 mg/kg i.p., 5 days then 10 days interval, 2 cycles) was “Significant reduction in tumor size”.
